PubChem BioAssay (NCI)
Several values for one entry are separate records, joined by “and”; a condition that tells them apart may be missing. Identical values can stand only once.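 Where inhibition never reached the appropriate level, the endpoint shown equals the highest concentration tested. Otherwise, values were interpolated linearly from a five-concentration, 48-hour dose response in 96-well plates. GI50 = concentration required for 50% inhibition of growth. TGI: total growth inhibition.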

Tests used:
Assay in all cases: inhibition of tumour cell growth, NCI panel, 48 h
NCI-H460 lung = test system: NCI-H460 lung
HL-60(TB) leukemia = test system: HL-60(TB) leukemia
BT-549 breast = test system: BT-549 breast
UO-31 renal = test system: UO-31 renal
OVCAR-5 ovarian = test system: OVCAR-5 ovarian
OVCAR-3 ovarian = test system: OVCAR-3 ovarian
MDA-MB-435 = test system: MDA-MB-435
U251 CNS = test system: U251 CNS
HOP-62 NSCLC = test system: HOP-62 NSCLC
HCT-15 colon = test system: HCT-15 colon
SK-MEL-28 melanoma = test system: SK-MEL-28 melanoma
T-47D breast = test system: T-47D breast
SK-MEL-5 melanoma = test system: SK-MEL-5 melanoma
A549 NSCLC = test system: A549 NSCLC
COLO 205 colon = test system: COLO 205 colon
DU-145 prostate = test system: DU-145 prostate
HCC-2998 colon = test system: HCC-2998 colon
SNB-75 CNS = test system: SNB-75 CNS
HOP-92 NSCLC = test system: HOP-92 NSCLC
M14 melanoma = test system: M14 melanoma
LOX IMVI melanoma = test system: LOX IMVI melanoma
IGROV1 ovarian = test system: IGROV1 ovarian
NCI-H23 lung = test system: NCI-H23 lung
MDA-MB-231 breast = test system: MDA-MB-231 breast
UACC-257 melanoma = test system: UACC-257 melanoma
HT29 colon = test system: HT29 colon
MALME-3M melanoma = test system: MALME-3M melanoma
PC-3 prostate = test system: PC-3 prostate
UACC-62 melanoma = test system: UACC-62 melanoma
HS 578T breast = test system: HS 578T breast
SK-OV-3 ovarian = test system: SK-OV-3 ovarian
SW-620 colon = test system: SW-620 colon
ACHN renal = test system: ACHN renal
MDA-N = test system: MDA-N
A498 renal = test system: A498 renal
SF-539 CNS = test system: SF-539 CNS
NCI-H522 lung = test system: NCI-H522 lung
MCF7 breast = test system: MCF7 breast
K-562 leukemia = test system: K-562 leukemia
SN12C renal = test system: SN12C renal
KM12 colon = test system: KM12 colon
CCRF-CEM leukemia = test system: CCRF-CEM leukemia
CAKI-1 renal = test system: CAKI-1 renal
TK-10 renal = test system: TK-10 renal
OVCAR-8 ovarian = test system: OVCAR-8 ovarian
786-0 renal = test system: 786-0 renal
RXF 393 renal = test system: RXF 393 renal
RPMI-8226 leukemia = test system: RPMI-8226 leukemia
MOLT-4 leukemia = test system: MOLT-4 leukemia
HCT-116 colon = test system: HCT-116 colon
SR leukemia = test system: SR leukemia
SNB-19 CNS = test system: SNB-19 CNS
EKVX NSCLC = test system: EKVX NSCLC
NCI/ADR-RES ovarian = test system: NCI/ADR-RES ovarian
SF-295 CNS = test system: SF-295 CNS
SK-MEL-2 melanoma = test system: SK-MEL-2 melanoma
SF-268 CNS = test system: SF-268 CNS
OVCAR-4 ovarian = test system: OVCAR-4 ovarian
NCI-H226 lung = test system: NCI-H226 lung

OB(O)c1ccccc1C#Cc1ccccc1B(O)O
TGI (NCI-H460 lung): 48.2 µM | TGI (HL-60(TB) leukemia): > 100 µM | TGI (BT-549 breast): 47.8 µM | TGI (UO-31 renal): 60.5 µM | TGI (OVCAR-5 ovarian): 81.4 µM | TGI (OVCAR-3 ovarian): 68.6 µM | TGI (MDA-MB-435): 49 µM | TGI (U251 CNS): 78.3 µM | TGI (HOP-62 NSCLC): 83.9 µM | TGI (HCT-15 colon): > 100 µM | TGI (SK-MEL-28 melanoma): 99.3 µM | TGI (T-47D breast): 83.6 µM | TGI (SK-MEL-5 melanoma): 31.9 µM | TGI (A549 NSCLC): 96.1 µM | TGI (COLO 205 colon): 35.1 µM | TGI (DU-145 prostate): 82.4 µM | TGI (HCC-2998 colon): 40.9 µM | TGI (SNB-75 CNS): > 100 µM | TGI (HOP-92 NSCLC): > 100 µM | TGI (M14 melanoma): 57.6 µM | TGI (LOX IMVI melanoma): 51.1 µM | TGI (IGROV1 ovarian): 13.9 µM | TGI (NCI-H23 lung): 90.9 µM | TGI (MDA-MB-231 breast): 66.3 µM | TGI (UACC-257 melanoma): 17.3 µM | TGI (HT29 colon): > 100 µM | TGI (MALME-3M melanoma): 44.2 µM | TGI (PC-3 prostate): > 100 µM | TGI (UACC-62 melanoma): 30.8 µM | TGI (HS 578T breast): 51 µM | TGI (SK-OV-3 ovarian): > 100 µM | TGI (SW-620 colon): > 100 µM | TGI (ACHN renal): > 100 µM | TGI (MDA-N): 58.4 µM | TGI (A498 renal): 15.6 µM | TGI (SF-539 CNS): 44.9 µM | TGI (NCI-H522 lung): 41.7 µM | TGI (MCF7 breast): 31.3 µM | TGI (K-562 leukemia): > 100 µM | TGI (SN12C renal): 68 µM | TGI (KM12 colon): 49 µM | TGI (CCRF-CEM leukemia): > 100 µM | TGI (CAKI-1 renal): 22.1 µM | TGI (TK-10 renal): 53.2 µM | TGI (OVCAR-8 ovarian): > 100 µM | TGI (786-0 renal): > 100 µM | TGI (RXF 393 renal): 36.9 µM | TGI (RPMI-8226 leukemia): 68.8 µM | TGI (MOLT-4 leukemia): > 100 µM | TGI (HCT-116 colon): 58.4 µM | TGI (SR leukemia): > 100 µM | TGI (SNB-19 CNS): 67.9 µM | TGI (EKVX NSCLC): 54.2 µM | TGI (NCI/ADR-RES ovarian): > 100 µM | TGI (SF-295 CNS): 75.9 µM | TGI (SK-MEL-2 melanoma): 34.7 µM | TGI (SF-268 CNS): 46.9 µM

Cc1ccc(/C=C2/N=C(N/N=C\C(O)C(O)C(O)CO)NC2=O)cc1 (stereo not drawn)
TGI (NCI-H460 lung): > 100 µM | TGI (HL-60(TB) leukemia): > 100 µM | TGI (BT-549 breast): > 100 µM | TGI (UO-31 renal): > 100 µM | TGI (OVCAR-5 ovarian): > 100 µM | TGI (OVCAR-3 ovarian): > 100 µM | TGI (MDA-MB-435): > 100 µM | TGI (U251 CNS): > 100 µM | TGI (HOP-62 NSCLC): > 100 µM | TGI (HCT-15 colon): > 100 µM | TGI (SK-MEL-28 melanoma): > 100 µM | TGI (T-47D breast): > 100 µM | TGI (SK-MEL-5 melanoma): > 100 µM | TGI (A549 NSCLC): > 100 µM | TGI (COLO 205 colon): > 100 µM | TGI (DU-145 prostate): > 100 µM | GI50 (HCC-2998 colon): > 100 µM and 30.9 µM | TGI (HCC-2998 colon): > 100 µM | TGI (SNB-75 CNS): > 100 µM | TGI (HOP-92 NSCLC): > 100 µM | TGI (OVCAR-4 ovarian): > 100 µM | TGI (M14 melanoma): > 100 µM | TGI (LOX IMVI melanoma): > 100 µM | TGI (IGROV1 ovarian): > 100 µM | TGI (MDA-MB-231 breast): > 100 µM | TGI (UACC-257 melanoma): > 100 µM | TGI (HT29 colon): > 100 µM | GI50 (MALME-3M melanoma): > 100 µM and 42.1 µM | TGI (MALME-3M melanoma): > 100 µM | TGI (PC-3 prostate): > 100 µM | TGI (NCI-H226 lung): > 100 µM | TGI (HS 578T breast): > 100 µM | TGI (SK-OV-3 ovarian): > 100 µM | TGI (SW-620 colon): > 100 µM | TGI (ACHN renal): > 100 µM | TGI (MDA-N): > 100 µM | TGI (A498 renal): > 100 µM | TGI (SF-539 CNS): > 100 µM | TGI (NCI-H522 lung): > 100 µM | TGI (MCF7 breast): > 100 µM | TGI (K-562 leukemia): > 100 µM | TGI (SN12C renal): > 100 µM | TGI (KM12 colon): > 100 µM | GI50 (CCRF-CEM leukemia): 51.5 µM | TGI (CCRF-CEM leukemia): > 100 µM | TGI (CAKI-1 renal): > 100 µM | TGI (TK-10 renal): > 100 µM | TGI (OVCAR-8 ovarian): > 100 µM | TGI (786-0 renal): > 100 µM | TGI (RXF 393 renal): > 100 µM | TGI (RPMI-8226 leukemia): > 100 µM | GI50 (MOLT-4 leukemia): 46.2 µM | TGI (MOLT-4 leukemia): > 100 µM | TGI (HCT-116 colon): > 100 µM | TGI (SR leukemia): > 100 µM | TGI (SNB-19 CNS): > 100 µM | TGI (EKVX NSCLC): > 100 µM | TGI (NCI/ADR-RES ovarian): > 100 µM | TGI (SF-295 CNS): > 100 µM | TGI (SK-MEL-2 melanoma): > 100 µM | TGI (SF-268 CNS): > 100 µM
